# Laboratory results reported in PubChem BioAssay AID328 (DTP/NCI, 2004).
# Where “and” joins values, the source holds several entries; their conditions need not be identical. Equal entries are not always repeated. Toxic doses and inconclusive results are not listed.
# Tested on: BDF1 mice, P388 leukemia ip, median survival T/C
# Assay: NCI In Vivo Anticancer Drug Screen. Data for tumor model P388 Leukemia (intraperitoneal) in B6D2F1 (BDF1) mice
# Conditions: endpoint: median survival time, higher = longer survival
# Procedure, shortened: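 Reported as T/C, where T is the survival measurement in dosed animals and C the same measurement in vehicle controls.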
# [1] = dose: 12.5 mg/kg/injection, schedule: Q01DX009 (ip), vehicle: saline with Tween-80
# [2] = dose: 25.0 mg/kg/injection, schedule: Q01DX009 (ip), vehicle: saline with Tween-80
# [3] = dose: 50.0 mg/kg/injection, schedule: Q01DX009 (ip), vehicle: saline with Tween-80
# [4] = dose: 100.0 mg/kg/injection, schedule: Q01DX009 (ip), vehicle: saline with Tween-80
# [5] = dose: 25.0 mg/kg/injection, schedule: Q04DX003 (ip), vehicle: saline with Tween-80
# [6] = dose: 50.0 mg/kg/injection, schedule: Q04DX003 (ip), vehicle: saline
# [7] = dose: 100.0 mg/kg/injection, schedule: Q04DX003 (ip), vehicle: saline with Tween-80
# [8] = dose: 200.0 mg/kg/injection, schedule: Q04DX003 (ip), vehicle: saline with Tween-80
smiles,measurement,setting,value
Cc1cc(C(C(N)=O)c2ccccc2)ccc1N(CCCl)CCCl (stereo not drawn),T/C,"dose: 0.22 mg/kg/injection, schedule: Q01DX009 (ip), vehicle: Klucel (hydroxypropylcellulose) (HPC)",112 % of control
same,T/C,"dose: 0.33 mg/kg/injection, schedule: Q01DX009 (ip), vehicle: Klucel (hydroxypropylcellulose) (HPC)",108 % of control
same,T/C,"dose: 0.77 mg/kg/injection, schedule: Q01DX009 (ip), vehicle: Klucel (hydroxypropylcellulose) (HPC)",155 % of control
same,T/C,"dose: 2.34 mg/kg/injection, schedule: Q01DX009 (ip), vehicle: Klucel (hydroxypropylcellulose) (HPC)",154 % of control
same,T/C,"dose: 4.68 mg/kg/injection, schedule: Q01DX009 (ip), vehicle: Klucel (hydroxypropylcellulose) (HPC)",186 % of control
same,T/C,"dose: 6.0 mg/kg/injection, schedule: Q04DX003 (ip), vehicle: saline",118 % of control
same,T/C,"dose: 12.37 mg/kg/injection, schedule: Q01DX009 (ip), vehicle: Klucel (hydroxypropylcellulose) (HPC)",96 % of control and 205 % of control
same,T/C,"dose: 13.75 mg/kg/injection, schedule: Q04DX003 (ip), vehicle: Klucel (hydroxypropylcellulose) (HPC)",178 % of control
same,T/C,"dose: 18.75 mg/kg/injection, schedule: Q01DX009 (ip), vehicle: Klucel (hydroxypropylcellulose) (HPC)",103 % of control
same,T/C,"dose: 27.5 mg/kg/injection, schedule: Q04DX003 (ip), vehicle: Klucel (hydroxypropylcellulose) (HPC)",213 % of control
same,T/C,"dose: 28.12 mg/kg/injection, schedule: Q01DX009 (ip), vehicle: Klucel (hydroxypropylcellulose) (HPC)",110 % of control
same,T/C,"dose: 35.0 mg/kg/injection, schedule: Q04DX003 (ip), vehicle: Klucel (hydroxypropylcellulose) (HPC)",218 % of control
same,T/C,"dose: 55.0 mg/kg/injection, schedule: Q04DX003 (ip), vehicle: Klucel (hydroxypropylcellulose) (HPC)",272 % of control and 221 % of control
same,T/C,"dose: 80.0 mg/kg/injection, schedule: Q04DX003 (ip), vehicle: Klucel (hydroxypropylcellulose) (HPC)",272 % of control
COc1ccc(C(Cn2ccnc2)Sc2ccc(Cl)c(Cl)c2)cc1 (stereo not drawn),T/C,[1],105 % of control
same,T/C,[2],110 % of control
same,T/C,[3],120 % of control
same,T/C,[4],93 % of control and 119 % of control
COCCCNP(=S)(N1CC1)N1CC1,T/C,"dose: 16.5 mg/kg/injection, schedule: Q04DX003 (ip), vehicle: saline with Tween-80",163 % of control and 195 % of control
same,T/C,[5],181 % of control and 218 % of control
same,T/C,"dose: 37.5 mg/kg/injection, schedule: Q04DX003 (ip), vehicle: saline with Tween-80",104 % of control and 109 % of control
NC(=S)N/N=C\c1nnc(N)s1,T/C,[3],90 % of control
C=Cn1ccnc1C.C=Cn1ccnc1C.CC(=O)CC(C)=O.CC(=O)CC(C)=O.[Co],T/C,"dose: 12.5 mg/kg/injection, schedule: Q04DX003 (ip), vehicle: saline",106 % of control
same,T/C,"dose: 25.0 mg/kg/injection, schedule: Q04DX003 (ip), vehicle: saline",106 % of control
same,T/C,[6],117 % of control
S=C(NNC(=S)Nc1ccc(Cl)cc1)NNc1ccccc1,T/C,"dose: 25.0 mg/kg/injection, schedule: Q01DX009 (ip), vehicle: other",100 % of control
same,T/C,"dose: 50.0 mg/kg/injection, schedule: Q01DX009 (ip), vehicle: other",100 % of control
same,T/C,"dose: 50.0 mg/kg/injection, schedule: Q04DX003 (ip), vehicle: Klucel (hydroxypropylcellulose) (HPC)",104 % of control
same,T/C,"dose: 100.0 mg/kg/injection, schedule: Q01DX001 (ip), vehicle: Klucel (hydroxypropylcellulose) (HPC)",100 % of control
same,T/C,"dose: 100.0 mg/kg/injection, schedule: Q01DX009 (ip), vehicle: other",115 % of control
same,T/C,"dose: 100.0 mg/kg/injection, schedule: Q04DX003 (ip), vehicle: Klucel (hydroxypropylcellulose) (HPC)",100 % of control
same,T/C,"dose: 150.0 mg/kg/injection, schedule: Q01DX009 (ip), vehicle: Klucel (hydroxypropylcellulose) (HPC)",110 % of control
same,T/C,"dose: 200.0 mg/kg/injection, schedule: Q01DX001 (ip), vehicle: Klucel (hydroxypropylcellulose) (HPC)",90 % of control
same,T/C,"dose: 200.0 mg/kg/injection, schedule: Q04DX003 (ip), vehicle: Klucel (hydroxypropylcellulose) (HPC)",100 % of control
same,T/C,"dose: 220.0 mg/kg/injection, schedule: Q01DX009 (ip), vehicle: Klucel (hydroxypropylcellulose) (HPC)",110 % of control
same,T/C,"dose: 225.0 mg/kg/injection, schedule: Q01DX009 (ip), vehicle: Klucel (hydroxypropylcellulose) (HPC)",110 % of control
same,T/C,"dose: 335.0 mg/kg/injection, schedule: Q01DX009 (ip), vehicle: Klucel (hydroxypropylcellulose) (HPC)",110 % of control
same,T/C,"dose: 400.0 mg/kg/injection, schedule: Q01DX001 (ip), vehicle: Klucel (hydroxypropylcellulose) (HPC)",104 % of control
CCC[CH2][Sn]([CH2]CCC)[CH2]CCC.CCC[CH2][Sn]([CH2]CCC)[CH2]CCC,T/C,"dose: 3.75 mg/kg/injection, schedule: Q01DX009 (ip), vehicle: saline with Tween-80",110 % of control
same,T/C,"dose: 7.5 mg/kg/injection, schedule: Q01DX009 (ip), vehicle: saline with Tween-80",92 % of control
same,T/C,"dose: 13.0 mg/kg/injection, schedule: Q04DX003 (ip), vehicle: saline with Tween-80",112 % of control
same,T/C,"dose: 15.0 mg/kg/injection, schedule: Q01DX009 (ip), vehicle: saline with Tween-80",114 % of control
same,T/C,"dose: 20.0 mg/kg/injection, schedule: Q04DX003 (ip), vehicle: saline with Tween-80",100 % of control
same,T/C,"dose: 25.0 mg/kg/injection, schedule: Q01DX009 (ip), vehicle: Klucel (hydroxypropylcellulose) (HPC)",95 % of control
same,T/C,"dose: 30.0 mg/kg/injection, schedule: Q04DX003 (ip), vehicle: saline with Tween-80",108 % of control
O=S1(=O)CCN(CCc2ccccc2)CC1,T/C,"dose: 50.0 mg/kg/injection, schedule: Q01DX009 (ip), vehicle: Klucel (hydroxypropylcellulose) (HPC)",94 % of control
same,T/C,"dose: 100.0 mg/kg/injection, schedule: Q01DX009 (ip), vehicle: Klucel (hydroxypropylcellulose) (HPC)",90 % of control
same,T/C,"dose: 200.0 mg/kg/injection, schedule: Q01DX009 (ip), vehicle: Klucel (hydroxypropylcellulose) (HPC)",96 % of control
Cc1ccc(C)c(CCCC(=O)O)c1,T/C,[4],95 % of control
same,T/C,[7],100 % of control
same,T/C,"dose: 200.0 mg/kg/injection, schedule: Q01DX009 (ip), vehicle: saline with Tween-80",109 % of control
same,T/C,[8],104 % of control
same,T/C,"dose: 400.0 mg/kg/injection, schedule: Q04DX003 (ip), vehicle: saline with Tween-80",108 % of control
C1CCC2[N-]CC3CCCCC3[N-]CC3CCCCC3[N-]CC3CCCCC3[N-]CC2C1.[Ni+2].[O-][Cl+3]([O-])([O-])O (stereo not drawn),T/C,"dose: 0.75 mg/kg/injection, schedule: Q01DX009 (ip), vehicle: saline",102 % of control
same,T/C,"dose: 1.5 mg/kg/injection, schedule: Q01DX009 (ip), vehicle: saline",110 % of control
same,T/C,"dose: 3.0 mg/kg/injection, schedule: Q01DX009 (ip), vehicle: saline",102 % of control
same,T/C,"dose: 6.0 mg/kg/injection, schedule: Q01DX009 (ip), vehicle: saline",105 % of control
O=C1/C(=C\c2ccccc2)OC(c2ccccc2)O/C1=C/c1ccccc1 (stereo not drawn),T/C,"dose: 50.0 mg/kg/injection, schedule: Q01DX009 (ip), vehicle: saline",108 % of control
same,T/C,"dose: 100.0 mg/kg/injection, schedule: Q01DX009 (ip), vehicle: saline",95 % of control
same,T/C,"dose: 100.0 mg/kg/injection, schedule: Q04DX003 (ip), vehicle: saline",120 % of control
same,T/C,"dose: 200.0 mg/kg/injection, schedule: Q01DX009 (ip), vehicle: saline",97 % of control
same,T/C,"dose: 200.0 mg/kg/injection, schedule: Q04DX003 (ip), vehicle: saline",117 % of control
same,T/C,"dose: 400.0 mg/kg/injection, schedule: Q04DX003 (ip), vehicle: saline",114 % of control
CC(C)OC(=O)Nc1ccccc1Cl,T/C,[6],95 % of control
CC(=O)OC(C)(C(=O)/C=C/C(C)(C)O)C1C(O)CC2(C)C3CC=C4C(C=C(O)C(=O)C4(C)C)C3(C)C(=O)CC12C (stereo not drawn),T/C,"dose: 0.25 mg/kg/injection, schedule: Q01DX010 (ip), vehicle: carboxymethylcellulose (CMC)",100 % of control
same,T/C,"dose: 0.5 mg/kg/injection, schedule: Q01DX010 (ip), vehicle: carboxymethylcellulose (CMC)",96 % of control
same,T/C,"dose: 1.0 mg/kg/injection, schedule: Q01DX010 (ip), vehicle: carboxymethylcellulose (CMC)",98 % of control
same,T/C,"dose: 2.0 mg/kg/injection, schedule: Q01DX010 (ip), vehicle: carboxymethylcellulose (CMC)",117 % of control
same,T/C,"dose: 4.0 mg/kg/injection, schedule: Q01DX010 (ip), vehicle: carboxymethylcellulose (CMC)",105 % of control
CCNC(C)(C)C(S)c1ccc(Cl)s1 (stereo not drawn),T/C,[1],93 % of control
same,T/C,[2],93 % of control
same,T/C,[5],101 % of control
same,T/C,[3],91 % of control and 104 % of control
same,T/C,"dose: 50.0 mg/kg/injection, schedule: Q04DX003 (ip), vehicle: saline with Tween-80",91 % of control
same,T/C,"dose: 75.0 mg/kg/injection, schedule: Q04DX003 (ip), vehicle: saline with Tween-80",108 % of control
same,T/C,[4],94 % of control and 109 % of control
same,T/C,[7],114 % of control
same,T/C,[8],116 % of control
